In article PMC6891695, “Evaluation of Antifouling Potential and Ecotoxicity of Secondary Metabolites Derived from Red Algae of the Genus Laurencia” (Marine Drugs, 2019):
Read-outs that look alike come from different tables or passages of the source.

Experiments:
[1] = in vivo; type: in vivo; conditions: Amphibalanus amphitrite, in vivo, read-out: LC50 Mortality; for LC50 at 24 h: 24 h exposure; for LC50 at 48 h: 48 h exposure; for LC50 at 72 h: 72 h exposure
Method: (§1) Adult A. amphitrite (Cirripedia, Balanidae) were collected from boat docks at Port Mikrolimano and Floisvos, Athens, Greece. Animals were cleaned of epibionts with a small hard brush and meticulously identified as individuals of the species. Adult barnacles were kept in separate aerated glass tanks (20 L) containing 200-μm filtered natural seawater at 27 °C and a 12:12 L:D photoperiod. Tanks were fed with 24-h hatched Artemia sp. (Branchiopoda) nauplii and Tetraselmis suecica (Chlorodendrophyceae) and Skeletonema costatum (Bacillariophyceae) algae each day and seawater was changed on alternate days. Upon stress to induce oviposition (exposure to air for 24 h or immersion in fresh water for 5 h), adults were returned to seawater for larval release. Hatched nauplii were attracted to a point light source, collected and placed into a beaker containing 2 or 3 L of 0.7 μm GF/F (GE Healthcare, Little Chalfont, UK )-filtered natural seawater at a density of approximately 1–2 nauplii/mL with gentle aeration. Nauplii were maintained at 27 °C at a 12:12 L:D photoperiod on a diet of C. gracilis (Bacillariophyceae) provided at a density of 2 × 10^5 cells/mL. Cultured in these conditions, nauplii metamorphosed to cyprids in 5 days. Aliquots of these cyprids were collected with a wide-mouthed Pasteur pipette and aged at 4 °C for 1 day prior to use in settlement assays. Only batches of cyprids that were active and had numerous oil cells, representing energy reserves, were used in settlement assays.
(§2) Assays were conducted by adding 10 cyprids into individual wells of a 24-well polystyrene sterile microplate (Orange Scientific, Braine l’Alleud, Belgium) with 2 mL of artificial sea water (ASW) (25‰) and various concentrations of the chemical compounds as listed in Table 1. These experiments were repeated at least three times with four replicates for each concentration of any given compound (n = 120 cyprids/compound). Stock solutions for all compounds were prepared in methanol (Scharlab, Barcelona, Spain) and serial dilutions were prepared in 0.7 μm (GF/F, GE Healthcare, Little Chalfont, UK), filtered sea water to have a final concentration of 2.5% methanol in each assay solution. Plates were covered and sealed with Parafilm® to avoid evaporation and incubated at 25 °C away from any light source and examined after 24, 48 and 72 h. Each animal was inspected under a stereomicroscope and its condition was recorded. […] Both permanently attached and metamorphosed individuals were counted as settled or juveniles. The remainder were counted as ‘no metamorphosis’, i.e. animals that responded to light touch and were still cyprids at the end of the experiments with no overt signs of metamorphosis.
(§3) For EC50 or IC50 (the concentration that results in 50% stimulation or inhibition relative to the control) calculations in GraphPad Prism v.6, all data were fitted to the curve according to the following models for normalized response: Y = 100/(1 + 10^((X − LogIC50))) or Y = 100/(1 + 10^((LogEC50 − X))) depending on the trend of the curve.

[2] = tested on: cyprids of A. amphitrite; test: whole plant or invertebrate; type: in vivo; conditions: for IC50 / EC50: Amphibalanus amphitrite; for IC50: read-out: IC50 Settlement; for EC50: read-out: EC50 No Metamorphosis; for EC50 values for settlement inhibition of barnacle cyprids (in words): consistently, 24-72 h; for toxic effect on cyprids: in vivo
Method: as §1, §2, §3

[3] = tested on: Chaetoceros gracilis; test: Chaetoceros gracilis toxicity (phytoplankton growth) assay; type: cell-based; conditions: 96 h; for EC50: Chaetoceros neogracilis
Method: For phytoplankton growth toxicity assays, the criterion for assay validity was that the cell count of the negative control after 96 h should be ≥2 × 10^5 cells/mL [40].
The centric marine diatom C. gracilis Schütt (strain CCMP1315) was grown photoautotrophically in autoclaved artificial seawater (sea salts; Sigma-Aldrich, St. Louis, MO, USA) (30‰) supplemented with F/2 (half-strength medium f as subsequently modified) in 100 mL medium at 20 °C and with ambient air bubbled in the media. By monitoring cell density, an adjusted culture of >1 × 10^6 cells/mL was used for the toxicity assays. At 96 h, a 0.9 mL aliquot of each treatment was sampled, mixed with 0.1 mL Lugol and cell density was counted. Experiments were assumed valid if cell count in the control after 96 h was […].
as §3

[4] = Artemia salina toxicity assay; type: in vivo; conditions: Artemia salina, in vivo, read-out: EC50 Artemia salina toxicity (mortality)
Method: The short-term toxicity assay with A. salina nauplii was used to determine the toxicity of secondary metabolites. Hatching of A. salina nauplii was carried out in ASW (35‰) using 0.5 g of cysts incubated in 500 mL seawater at a temperature of 25 ± 1 °C and lateral illumination (1000 Lux). All cysts were kept in continuous suspension with aeration and 24 h later hatched larvae (instar I) were harvested. Toxicity assays were carried out in three independent experiments in 24-well plates with four replicates of each tested concentration. Ten nauplii per well were transferred with a Pasteur pipette into the 24-well plates and each well was filled with 2 mL of ASW and 50 μL of various concentrations of the tested compounds in methanol. Control treatments received 50 μL of methanol. Plates were incubated in the dark at 25 ± 1 °C for 48 h. Mortality was assessed by recording the number of individuals with no movement of their appendages within 10 seconds and is expressed as the percentage of the total number of assessed individuals for each concentration.
as §3

Row | SMILES | LC50 at 24 h [1] [µM] | LC50 at 48 h [1] [µM] | LC50 at 72 h [1] [µM] | IC50 ([2]; 24 h) [nM] | EC50 ([2]; 48 h) [µM] | IC50 ([2]; 48 h) [nM] | EC50 ([2]; 72 h) [µM] | IC50 ([2]; 72 h) [nM] | C. gracilis exclusion criterion (EC50 compared with bromosphaerol) [3] | EC50 [3] [µM] | EC50 ([2]; 24 h) [µM] | EC50 values for settlement inhibition of barnacle cyprids (in words) [2] | LC50 at 24 h [4] [µM] | LC50 at 48 h [4] [µM] | toxic effect on cyprids [2]
1 | C=C1CC[C@@](C)(c2cc(Br)c(C)cc2OC(C)=O)[C@H]1C [Compound 3, allolaurinterol acetate] | 66.1 | 382 | 269 | 1040 | 80.9 | 1800 | 109 | 2000 |  |  |  |  |  |  | 
2 | CC1(C(Br)CO)CC=C2C(C1)C(O)CC1C2(C)CCC(Br)C1(C)C (stereo not shown) [Compound 14, 3,15-dibromo-7,16-dihydroxy-isopimar-9(11)-ene] | 1.96 | 3.61 | 3.54 | 11 | 5.15 | 65 | 7.72 | 28 | did not pass this criterion | 1.61 | 6.42 | sub-micromolar | 34.2 | 15.1 | 
3 | CC(=CC=CC1(C)CCC(Br)C(C)(C)O1)C1CCC(C)(O)C(Br)C1 (stereo not shown) [Compound 20, O^11,15-cyclo-14-bromo-14,15-dihydrorogiol-3,11-diol] |  |  | 138 | 2570 | 11.3 | 2890 | 10.1 | 3320 |  |  | 47 |  |  |  | 
4 | Cc1cc(O)c(C2(C)CCC3CC32C)cc1Br (stereo not shown) [Compound 6, laurinterol] | 12.3 | 5.29 | 2.31 | 2420 | 10.8 | 2220 | 15 | 1270 |  |  | 28.3 |  |  |  | obvious toxic effect on cyprids
5 | Cc1cc2c(cc1Br)C1(C)CCC(C)(O2)C1C (stereo not shown) [Compound 5, filiformin] | 33.1 |  |  | 2260 | 0.001 | 5450 | 0.287 | 12900 |  |  | 27 |  |  |  | 
6 | CCC=CCC(Br)C(CC1OC(C=C=CBr)CC1OC(C)=O)OC(C)=O (stereo not shown) [Compound 23, graciosallene] |  |  |  | 237 | 10.3 | 9180 | 11.2 | 9700 |  |  | 0.276 |  |  |  | 
7 | CC(C)C1=C2CCC(C)C2CC(C)(C)C1O (stereo not shown) [Compound 8, 4-hydroxy-5-brasilene] | 7.76 | 7.38 | 5.93 | 15800 | 5.01 | 17500 | 5.42 | 6950 |  |  | 6.81 |  |  |  | obvious toxic effect on cyprids
8 | CC1C(Br)C(=O)C(C)C23CCC2(C)C(Br)CC13C (stereo not shown) [Compound 11, perforatone] | 56.1 | 38.4 |  | 3 | 0.002 | 2 |  | 2 | did not pass this criterion | 4.52 | 0.003 | sub-micromolar | 10.1 | 1.57 | 
9 | CC(=O)OCC(Br)C1(C)CC=C2C(C1)C(O)CC1C2(C)CC(OC(C)=O)C2CC21C (stereo not shown) [Compound 15, deoxyparguerol 16-acetate] | 31.7 | 33.4 | 34.6 | 2840 | 55.1 | 7020 | 73 | 5370 |  |  | 63.6 |  |  |  | 
10 | C#CC=CCC1OC(C=CC)CC=CCC1Cl (stereo not shown) [Compound 21, (3Ε)-laurenyne] | 0.575 | 1.12 | 18.6 | 3210 | 18.2 | 7370 | 0.001 | 575 |  |  | 7.42 |  |  |  | 
11 | C=C1CC[C@@](C)(c2ccc(C)cc2)[C@H]1C [Compound 1, laurene] | 26 | 230 | 29.5 | 27900 |  | 14600 |  | 16200 |  |  | 38 |  |  |  | 
12 | C=CC(C)(O)CCC1C(=C)CCC(Br)C1(C)CCC(Br)C(C)(C)O (stereo not shown) [Compound 17] |  |  | > 1000 | 634 | 0.921 | 806 | 101 | 1190 |  |  | 0.057 |  |  |  | 
13 | CC1=CC[C@@]2(C)C(=C(C)C(=O)[C@@H](O)[C@@H]2C)CC1 [Compound 10, perforenone A] | 28.8 | 28.5 | 28.8 | 5240 | 71 | 662 | 57.2 | 4660 |  |  | 39.3 |  |  |  | 
14 | C=CC(C)(O)CC[C@H](Br)[C@@]1(C)CC[C@H](Br)C(C)(C)O1 (stereo partly shown) [Compound 13, obtusenol] | 29.8 | 849 | 8.15 | 1490 | 64.7 | 1060 | 78.9 | 1020 |  |  | 46.4 |  |  |  | 
15 | C=CC(C)(O)CCC1C(=C)CCC(Br)C1(C)CCC(O)C(C)(C)Cl (stereo not shown) [Compound 16] | > 1000 | > 1000 | > 1000 | 1420 | 49.1 | 1960 | 58.5 | 2200 |  |  | 58.3 |  |  |  | 
16 | C=C1CC[C@@](C)(c2ccc(C)cc2OC(C)=O)[C@H]1C [Compound 2, debromoallolaurinterol acetate] | > 1000 | 790 | 191 | 2020 | 38.2 | 18100 | 36.5 | 19800 |  |  | 44 |  |  |  | 
17 | CC(C)[C@H]1CC(C)(C)[C@@H](O)C2=C1CC[C@H]2C [Compound 7, epibrasilenol] | 24.8 | 23.4 | 25 | 17500 | 21.7 | 17700 | 53.2 | 10300 |  |  | 25.4 |  |  |  | 
